Source: PubChem BioAssay AID1963845 (Molecular Pharmacology Branch, DTP, NCI, 2024)

Test system: 429239-143-T-J1-PDC complex spheroid viability
Assay: Anticancer human tumor 429239-143-T-J1-PDC patient-derived small cell lung carcinoma cell line growth inhibition [POLQ]
Conditions: for IC50: curve of first compound; for viability, T/C: stronger effect = lower value
Method: Multicellular complex tumor spheroid response to Polymerase (POL) inhibitors (novobiocin, ART-558, RP6685) in combination with a variety of drugs and investigational agents in selected tumor cell lines
The POL inhibitors (novobiocin, ART-558, and RP6685) were evaluated both individually and in combination with standard of care and investigational anticancer small molecules within a complex spheroid model of solid tumors. . Complex spheroids include a stromal component modeled by human endothelial cells (HUVEC) and fibroblasts modeled by human mesenchymal stem cells (MSCs). The concentration ranges selected for each drug and investigational agent were based upon clinically achievable concentrations if the clinical Cmax of the agent was known.
Compounds. The drugs and investigational agents: novobiocin (NSC847541), ART-558 (NSC835418), RP-6685 (NSC848927), peposertib (NSC802822), ceralasertib (NSC780249), elimusertib (NSC800525), camonsertib (NSC841442), AZD-1390 (NSC803789), olaparib (NSC753686), talazoparib (NSC767125), rucaparib (NSC756644), sotorasib (NSC818433), MRTX-1133 (NSC836407), SN-38 (NSC673596), topotecan (NSC609699), epotoside (NSC141540), doxorubicin (NSC123127), gemcitabine (NSC613327), 5-fluorouracil (NSC19893), paclitaxel (NSC125973), vemurafenib (NSC761431), MSA-2 (NSC828583), SN-011 (NSC837082), adavosertib (NSC754352), prexasertib (NSC758257), carboplatin (NSC241240) and oxaliplatin (NSC266046), were obtained from the National Cancer Institute (NCI) Developmental Therapeutics Program Chemical Repository (21). The FDA-approved anticancer drug set is available from the Developmental Therapeutics Program at https://dtp.cancer.gov/organization/dscb/obtaining/. […] The stock solutions were prepared in dimethyl sulfoxide (DMSO, Sigma-Aldrich, St. Louis, MO, cat. D2650), except for the platinum compounds which were prepared in saline (Quality Biological, Gaithersburg, MD, cat. 114-055-101), at 800-fold the tested concentration and stored at -70 degrees C prior to their use. All drugs and investigational agents were tested over a range starting from a high concentration at or near the clinical Cmax and decreasing in half-log increments. If the clinical Cmax for an agent had not been determined, the highest concentration tested was 10 microM, except for SN-38, which was tested at a high concentration of 1 microM.
Cell Culture. All cells were maintained in an incubator at 37 degrees C and 5% CO2 with 95% humidity. The PDC lines were cultured according to standard operating procedures established by the NCI PDMR (https://pdmr.cancer.gov). Table 3 of the manuscript, lists the cell lines along with the number of the three cell types plated to form the mct-spheroids and media for tumor cell growth. After thawing, all PDC lines, except 997537-175-T-J1-PDC and 415267-285-R-J2-PDC, were cultured in Matrigel-coated flasks prepared with a working solution of 1X Ham's F-12 nutrient mix, without supplementation (Thermo Fisher Scientific, cat. 11765054), 100 U/mL penicillin-streptomycin (Thermo Fisher Scientific, cat. 15140122), and 2.5% Matrigel (Corning Inc., Corning, NY, cat. 354248) for the first three passages. The two PDC lines 997537-175-T-J1-PDC and 415267-285-R-J2-PDC were cultured on uncoated flasks. The 857933-349-R-J2-PDC line was cultured in 6C/Colon 1B media containing advanced DMEM/F-12 (Thermo Fisher Scientific, cat. 12634028), 10 mM HEPES (Thermo Fisher Scientific, cat. 15630080), 1X GlutaMAX supplement (Thermo Fisher Scientific, cat. 35050061), 0.1 mg/mL primocin (InvivoGen, San Diego, CA, cat. ant-pm-2), 10% defined fetal bovine serum, heat inactivated (HyClone Laboratories Inc., Logan, UT, cat. SH30070.03HI), 50% L-WRN conditioned media (ATCC, cat. CRL-3276), 1.25 mM N-Acetyl-L-cysteine (Sigma-Aldrich, cat. A9165), 10 mM nicotinamide (Sigma-Aldrich, cat. N0636), 1X B-27 supplement (Thermo Fisher Scientific, cat. 17504044), 1X N-2 supplement (Thermo Fisher Scientific, cat. […]

[1] = second compound 0.0316 µM, first compound 0.0316 µM
[2] = second compound 0.0316 µM, first compound 0.1 µM
[3] = second compound 0.1 µM, first compound 0.0316 µM
[4] = second compound 0.1 µM, first compound 0.1 µM
[5] = second compound 0.316 µM, first compound 0.0316 µM
[6] = second compound 0.316 µM, first compound 0.1 µM
[7] = second compound 1 µM, first compound 0.0316 µM
[8] = second compound 1 µM, first compound 0.1 µM
[9] = second compound 3.16 µM, first compound 0.0316 µM
[10] = second compound 3.16 µM, first compound 0.1 µM
[11] = second compound 10 µM, first compound 0.0316 µM
[12] = second compound 10 µM, first compound 0.1 µM
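Further: luminescence signal used as surrogate measure of viable cells; spheroids exposed to compounds for seven days before readout.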
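Wherever viability, T/C is given: 100% = DMSO vehicle control viability as luminescence relative to vehicle.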

Q: What does the source list for `Cn1ncnc1[C@H]1c2n[nH]c(=O)c3cc(F)cc(c23)N[C@@H]1c1ccc(F)cc1` + COC1C(OC(N)=O)C(O)C(Oc2ccc3c(O)c(NC(=O)c4ccc(O)c(CC=C(C)C)c4)c(=O)oc3c2C)OC1(C)C?
A: IC50 (second compound 0.0316 µM): 24.5 nM; IC50 (second compound 0.1 µM): 13.9 nM; IC50 (second compound 0.316 µM): 23.4 nM; IC50 (second compound 1 µM): 15.4 nM; IC50 (second compound 3.16 µM): 13.7 nM; IC50 (second compound 10 µM): 14.3 nM; viability, T/C (second compound 0.0316 µM, first compound 0.000316 µM): 97.7%; viability, T/C (second compound 0.0316 µM, first compound 0.001 µM): 89.6%; viability, T/C (second compound 0.0316 µM, first compound 0.00316 µM): 83.6%; viability, T/C (second compound 0.0316 µM, first compound 0.01 µM): 62.6%; viability, T/C [1]: 47%; viability, T/C [2]: 27.8%; viability, T/C (second compound 0.1 µM, first compound 0.000316 µM): 104%; viability, T/C (second compound 0.1 µM, first compound 0.001 µM): 105%; viability, T/C (second compound 0.1 µM, first compound 0.00316 µM): 84.6%; viability, T/C (second compound 0.1 µM, first compound 0.01 µM): 51.5%; viability, T/C [3]: 45.5%; viability, T/C [4]: 27.8%; viability, T/C (second compound 0.316 µM, first compound 0.000316 µM): 94.2%; viability, T/C (second compound 0.316 µM, first compound 0.001 µM): 92.4%; viability, T/C (second compound 0.316 µM, first compound 0.00316 µM): 88.7%; viability, T/C (second compound 0.316 µM, first compound 0.01 µM): 64.5%; viability, T/C [5]: 45.7%; viability, T/C [6]: 22.8%; viability, T/C (second compound 1 µM, first compound 0.000316 µM): 98.4%; viability, T/C (second compound 1 µM, first compound 0.001 µM): 93.5%; viability, T/C (second compound 1 µM, first compound 0.00316 µM): 82.9%; viability, T/C (second compound 1 µM, first compound 0.01 µM): 57.6%; viability, T/C [7]: 36.8%; viability, T/C [8]: 25.4%; viability, T/C (second compound 3.16 µM, first compound 0.000316 µM): 92.1%; viability, T/C (second compound 3.16 µM, first compound 0.001 µM): 90%; viability, T/C (second compound 3.16 µM, first compound 0.00316 µM): 77.7%; viability, T/C (second compound 3.16 µM, first compound 0.01 µM): 58.1%; viability, T/C [9]: 31.5%; viability, T/C [10]: 27.8%; viability, T/C (second compound 10 µM, first compound 0.000316 µM): 89.5%; viability, T/C (second compound 10 µM, first compound 0.001 µM): 90.9%; viability, T/C (second compound 10 µM, first compound 0.00316 µM): 78.9%; viability, T/C (second compound 10 µM, first compound 0.01 µM): 53.4%; viability, T/C [11]: 39.6%; viability, T/C [12]: 25.1%

Q: Which IC50 (second compound 0.0316 µM) does the source give for `CCCS(=O)(=O)Nc1ccc(F)c(C(=O)c2c[nH]c3ncc(-c4ccc(Cl)cc4)cc23)c1F` + Nc1ccc(C#CCN(C(=O)Cc2ncc(C(F)(F)F)cc2C(F)(F)F)c2ccc(F)cc2)nn1 here?
A: > 10000 nM

Q: And the IC50 (second compound 0.1 µM)?
A: > 10000 nM

Q: What about the IC50 (second compound 0.316 µM) of the same compound?
A: > 10000 nM

Q: And the IC50 (second compound 1 µM)?
A: > 10000 nM

Q: What about the IC50 (second compound 3.16 µM) of the same compound?
A: > 10000 nM

Q: What about the IC50 (second compound 10 µM) of the same compound?
A: > 10000 nM

Q: And the viability, T/C [1]?
A: 99%

Q: And the viability, T/C [2]?
A: 111%

Q: What about the viability, T/C (second compound 0.0316 µM, first compound 0.316 µM) of the same compound?
A: 101%

Q: What about the viability, T/C (second compound 0.0316 µM, first compound 1 µM) of the same compound?
A: 110%

Q: What about the viability, T/C (second compound 0.0316 µM, first compound 3.16 µM) of the same compound?
A: 104%

Q: And the viability, T/C (second compound 0.0316 µM, first compound 10 µM)?
A: 93.3%

Q: And the viability, T/C [3]?
A: 106%

Q: And the viability, T/C [4]?
A: 102%

Q: And the viability, T/C (second compound 0.1 µM, first compound 0.316 µM)?
A: 96.9%

Q: What about the viability, T/C (second compound 0.1 µM, first compound 1 µM) of the same compound?
A: 100%

Q: What about the viability, T/C (second compound 0.1 µM, first compound 3.16 µM) of the same compound?
A: 98.3%

Q: And the viability, T/C (second compound 0.1 µM, first compound 10 µM)?
A: 88.7%

Q: What about the viability, T/C [5] of the same compound?
A: 105%

Q: What about the viability, T/C [6] of the same compound?
A: 108%

Q: What about the viability, T/C (second compound 0.316 µM, first compound 0.316 µM) of the same compound?
A: 106%

Q: What about the viability, T/C (second compound 0.316 µM, first compound 1 µM) of the same compound?
A: 106%

Q: And the viability, T/C (second compound 0.316 µM, first compound 3.16 µM)?
A: 108%

Q: What about the viability, T/C (second compound 0.316 µM, first compound 10 µM) of the same compound?
A: 93.4%

Q: And the viability, T/C [7]?
A: 114%

Q: What about the viability, T/C [8] of the same compound?
A: 99.5%

Q: What about the viability, T/C (second compound 1 µM, first compound 0.316 µM) of the same compound?
A: 97.4%

Q: And the viability, T/C (second compound 1 µM, first compound 1 µM)?
A: 104%

Q: And the viability, T/C (second compound 1 µM, first compound 3.16 µM)?
A: 112%

Q: What about the viability, T/C (second compound 1 µM, first compound 10 µM) of the same compound?
A: 91%

Q: And the viability, T/C [9]?
A: 105%

Q: What about the viability, T/C [10] of the same compound?
A: 104%

Q: What about the viability, T/C (second compound 3.16 µM, first compound 0.316 µM) of the same compound?
A: 94.6%

Q: What about the viability, T/C (second compound 3.16 µM, first compound 1 µM) of the same compound?
A: 102%

Q: And the viability, T/C (second compound 3.16 µM, first compound 3.16 µM)?
A: 101%

Q: And the viability, T/C (second compound 3.16 µM, first compound 10 µM)?
A: 94.9%

Q: What about the viability, T/C [11] of the same compound?
A: 116%

Q: What about the viability, T/C [12] of the same compound?
A: 98.3%

Q: What about the viability, T/C (second compound 10 µM, first compound 0.316 µM) of the same compound?
A: 105%

Q: And the viability, T/C (second compound 10 µM, first compound 1 µM)?
A: 108%

Q: What about the viability, T/C (second compound 10 µM, first compound 3.16 µM) of the same compound?
A: 102%

Q: What about the viability, T/C (second compound 10 µM, first compound 10 µM) of the same compound?
A: 89.1%
